Measurements as given in US20090220533A1, “Novel T-Helper Antigenic Determinant (THD) Peptides” (priority 2005, published 2009).
Each block holds one molecule with its values, some of them ahead of it. No end group written: not given here.

Legend:
Class I HLA = assay: Inhibition of biotinylated p45 binding to cell lines by anti-Class I antibody (W6/32); parameters: species or system human; conditions: biotinylated p45 10 μM
Procedure: (§1) In second place, the HLA-DR4 cell line was incubated in the presence of the biotinylated P45 peptides and antibodies selected due to their specificity to HLA-DR, HLA-DP, HLA-DQ and Class I HLA respectively (FIG. 3).
(§2) In a 96-well plate with U-shaped bottom, the HLA-DR4 cell line was seeded (already defined); (2×10^5 per well), also adding biotinylated P45 peptides (10 μM), alone or together with supernatant of the hybridomas: L243 anti-HLA-DR (ATCC Ref: HB-55), or W6/32 anti-Class I (ATCC Ref: HB-95) or the antibodies 33.1 anti-HLA-DQ or anti-HLA-DP B7/21, which were provided by Dr. Ghislaine Sterkers. All were diluted to (1/500) in a final volume of 100 μl of RPMI with 2.5% FBS.
(§3) % Inhibition=100×((Fp45+aHLA−Fblnk)/(Fp45−Fblnk))
(§4) where Fblnk is the fluorescence measured when the cells were cultured without adding peptide or antibodies (blank), Fp45 is the fluorescence measured when it was incubated with the biotinylated P45 peptides alone, and Fp45+aHLA is the fluorescence measured when it was measured with the biotinylated p45 together with the corresponding HLA antibodies.
(§5) All the assays were performed in triplicate.
(§6) In this way, these tests were repeated on the HLA-DR1, HLA-DR3, HLA-DR7, HLA-DR8, HLA-DR11 cell lines. The inhibition percentages obtained are set down in Table 2.

HLA-DP = assay: Inhibition of biotinylated p45 binding to cell lines by anti-HLA-DP antibody (B7/21); parameters: species or system human; conditions: biotinylated p45 10 μM
Procedure: as §1, §2, §3, §4, §5, §6

HLA-DR = assay: Inhibition of biotinylated p45 binding to cell lines by anti-HLA-DR antibody (L243); parameters: species or system human; conditions: for Percentage of inhibition (%) aDR: biotinylated p45 10 μM
Procedure: as §1, §2, §3, §4, §5, §6

HLA-DR4 cell line = target: T1, HLA-DR4 cell line (Homo sapiens, UniProt P01903+P01911, /P40V/Q125Y/R42H/S133A/S149N/S66Y/V115G/V209L/W38E); assay: Direct binding of biotinylated p45 at different concentrations to the HLA-DR4 cell line, fluorescence (FIG. 2); conditions: range of concentrations tested
T1 construct: host or cells: EBV-transformed B lymphocyte line homozygous for HLA-DR4
Procedure: In first place, tests were performed for binding to HLA-DR in the different cell lines, incubated with biotinylated p45 at different concentrations. To avoid the possible crystallization of the peptide, this was solubilized with the aid of a sonicator. […] As can be verified, the peptide binding is dose-dependent in the range of concentrations tested.

HLA-DQ = assay: Inhibition of biotinylated p45 binding to cell lines by anti-HLA-DQ antibody (33.1); parameters: species or system human; conditions: for Percentage of inhibition (%) aDQ: biotinylated p45 10 μM
Procedure: as §1, §2, §3, §4, §5, §6

[1] = target: Class I HLA on the EBV-transformed B cell lines (human); assay: flow cytometry on SWEIG cells; inhibition of the binding of biotinylated p45 (10 uM) by the antibody diluted 1/500
[2] = target: Class I HLA on the EBV-transformed B cell lines (human); assay: flow cytometry on BOLETH cells; inhibition of the binding of biotinylated p45 (10 uM) by the antibody diluted 1/500
[3] = target: Class I HLA on the EBV-transformed B cell lines (human); assay: flow cytometry on MOU cells; inhibition of the binding of biotinylated p45 (10 uM) by the antibody diluted 1/500
[4] = target: Class I HLA on the EBV-transformed B cell lines (human); assay: flow cytometry on RSH cells; inhibition of the binding of biotinylated p45 (10 uM) by the antibody diluted 1/500
[5] = target: Class I HLA on the EBV-transformed B cell lines (human); assay: flow cytometry on OLGA cells; inhibition of the binding of biotinylated p45 (10 uM) by the antibody diluted 1/500
[6] = target: Class I HLA on the EBV-transformed B cell lines (human); assay: flow cytometry on HOM2 cells; inhibition of the binding of biotinylated p45 (10 uM) by the antibody diluted 1/500
[7] = target: T2, HLA-DR8 (DRB1*0802) on OLGA cells (human); assay: flow cytometry on OLGA cells; inhibition by anti-HLA-DR antibody
T2 construct: whole, on cells; On the EBV-transformed B cell line OLGA (ECACC 88052100)

[8] = cell line BOLETH, DR4, DRB1*0401-DQB1*0302
[9] = cell line HOM2, DR1, DRB1*0101-DQB1*0501
[10] = cell line MOU, DR7, DRB1*0701-DQB1*0201
[11] = cell line OLGA, DR8, DRB1*0802-DQB1*0402
[12] = cell line RSH, DR3, DRB1*0302-DQB1*0402
[13] = cell line SWEIG, DR11, DRB1*11011-DQB1*0301

Molecule: biotinylated p45: p45 peptide conjugated with biotin (EZ-Link Sulfo-NHS-LC-Biotin) (FKYRMMMRMRAAA; also: biotin (EZ-Link Sulfo-NHS-LC-Biotin), site not given here)
- Percentage of inhibition (%) aClI (Class I HLA; [8]): 1%
- Percentage of inhibition (%) aClI (Class I HLA; [9]): 13%
- Percentage of inhibition (%) aClI (Class I HLA; [10]): 0%
- Percentage of inhibition (%) aClI (Class I HLA; [11]): 5%
- Percentage of inhibition (%) aClI (Class I HLA; [12]): 6%
- Percentage of inhibition (%) aClI (Class I HLA; [13]): 0%
- Percentage of inhibition (%) aDP (HLA-DP; [8]): 7%
- Percentage of inhibition (%) aDP (HLA-DP; [9]): 23%
- Percentage of inhibition (%) aDP (HLA-DP; [10]): 13%
- Percentage of inhibition (%) aDP (HLA-DP; [11]): 4%
- Percentage of inhibition (%) aDP (HLA-DP; [12]): 28%
- Percentage of inhibition (%) aDP (HLA-DP; [13]): 0%
- Binding of biotinylated peptide to HLA-DR1 (HLA-DR; HLA-DR1 cell line): bound to HLA-DR1
- Capacity of binding to HLA-DR (HLA-DR; all the cell lines (Table 2)): high capacity of binding
- Percentage of inhibition (%) aDR (HLA-DR; [8]): 59%
- Percentage of inhibition (%) aDR (HLA-DR; [9]): 78%
- Percentage of inhibition (%) aDR (HLA-DR; [10]): 71%
- Percentage of inhibition (%) aDR (HLA-DR; [11]): 92%
- Percentage of inhibition (%) aDR (HLA-DR; [12]): 86%
- Percentage of inhibition (%) aDR (HLA-DR; [13]): 89%
- Dose dependence of peptide binding (fluorescence) (HLA-DR4 cell line): dose-dependent
- Capacity of binding to HLA-DQ (HLA-DQ; all the cell lines (Table 2)): high capacity of binding
- Percentage of inhibition (%) aDQ (HLA-DQ; [8]): 75%
- Percentage of inhibition (%) aDQ (HLA-DQ; [9]): 75%
- Percentage of inhibition (%) aDQ (HLA-DQ; [10]): 98%
- Percentage of inhibition (%) aDQ (HLA-DQ; [11]): 88%
- Percentage of inhibition (%) aDQ (HLA-DQ; [12]): 98%
- Percentage of inhibition (%) aDQ (HLA-DQ; [13]): 83%

- Percentage of inhibition (%) [1]: 0%
- Percentage of inhibition (%) [2]: 1%
- Percentage of inhibition (%) [3]: 0%
- Percentage of inhibition (%) [4]: 6%
- Percentage of inhibition (%) [5]: 5%
- Percentage of inhibition (%) [6]: 13%
Molecule: W6/32 anti-Class I (ATCC Ref: HB-95) (antibody)

- binding result [7]: binds
B1: biotinylated p45 (peptide)
peptide: FKYRMMMRMRAAA
modifications: also: biotinylated (Sulfo-NHS-LC-Biotin), site not given here
notes: also called biotinylated P45 peptide; biotinylated P45 peptides
